Test results as given in US12044651B2, “Sensor device and methods” (SCENTIAN BIO LIMITED, priority 2016, dated 2024).
Like-named read-outs stand apart in the source and are kept apart here. Marks after values point to notes of the source that are not given here.

Legend:
[1] = molecular target: T1, OR35a (Drosophila melanogaster, UniProt Q9V3Q2); test: CNT-FET sensor covalently functionalized with Or35a nanodiscs (Example 3); type: binding
T1 sequence (Q9V3Q2 1-409): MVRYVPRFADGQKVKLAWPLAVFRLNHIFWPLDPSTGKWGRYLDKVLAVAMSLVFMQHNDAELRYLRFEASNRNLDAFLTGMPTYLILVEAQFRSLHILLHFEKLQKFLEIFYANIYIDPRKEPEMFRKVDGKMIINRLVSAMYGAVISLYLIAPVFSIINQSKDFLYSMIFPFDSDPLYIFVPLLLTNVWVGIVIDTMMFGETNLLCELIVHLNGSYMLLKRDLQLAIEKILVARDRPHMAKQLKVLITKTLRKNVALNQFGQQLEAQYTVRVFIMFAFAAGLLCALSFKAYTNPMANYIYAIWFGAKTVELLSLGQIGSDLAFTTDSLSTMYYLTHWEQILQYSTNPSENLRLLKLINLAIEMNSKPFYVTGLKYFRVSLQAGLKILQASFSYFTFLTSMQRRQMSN
Experimental: The dispersion was sonicated until a clear solution was obtained. The temperature was kept at 25° C. throughout the sonication process. The thiolpyridine solution was prepared by dissolving 10 mg of 2-Mercaptopyridine (99%, Sigma Aldrich) in 1 ml of methanol. The solution was spun coated on a polydimethylsiloxane (PDMS) surface at 2000 rpm for one minute. Before the spin coating process, the PDMS surface was cleaned by a 50 W Oxygen plasma for 1 minute to improve the wettability. The cleaned substrates were placed upside down on the PDMS surface for three minutes and washed in ethanol to remove the excess thiolpyridine molecules. Then the substrates were transferred into the CNT suspension and immersed into the suspension for 10 minutes. The samples were removed from the suspension and dipped into Ethanol for another 10 minutes to remove the thiolpyridine molecules in the SWNT network. The alignment markers were deposited by defining the markers by photolithography and thermal evaporation of 5 nm Chromium and 50 nm of Gold. The metal Lift off was done by acetone immersion for 15 minutes followed by an Isopropyl alcohol (IPA) wash and N2 blow dry. The result is a uniform thin film CNT network covering the entire substrate surface. The purification procedure is a variation on the one detailed in […] et al. 2013^14. […] Purity was assessed on Coomassie stained SDS-PAGE gels and Western blotting. […]

[2] = molecular target: T2, DmOr22a/Orco (Drosophila melanogaster, UniProt P81909); settings: cited from earlier work; for Sensitivity limit (Log): given as Log, estimated visually from graph
T2 sequence (P81909 1-397): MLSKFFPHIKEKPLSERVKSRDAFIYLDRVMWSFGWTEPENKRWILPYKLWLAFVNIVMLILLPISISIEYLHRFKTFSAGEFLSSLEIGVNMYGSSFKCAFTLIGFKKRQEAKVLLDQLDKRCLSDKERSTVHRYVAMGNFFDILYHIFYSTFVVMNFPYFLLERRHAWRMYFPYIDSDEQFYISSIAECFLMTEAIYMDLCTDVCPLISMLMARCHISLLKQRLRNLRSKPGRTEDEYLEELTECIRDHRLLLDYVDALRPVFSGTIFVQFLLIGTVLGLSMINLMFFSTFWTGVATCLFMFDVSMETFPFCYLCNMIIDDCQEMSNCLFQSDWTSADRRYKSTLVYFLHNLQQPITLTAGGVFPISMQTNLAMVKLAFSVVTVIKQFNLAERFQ
T2 sequence (Q9VNB5 1-486 partner): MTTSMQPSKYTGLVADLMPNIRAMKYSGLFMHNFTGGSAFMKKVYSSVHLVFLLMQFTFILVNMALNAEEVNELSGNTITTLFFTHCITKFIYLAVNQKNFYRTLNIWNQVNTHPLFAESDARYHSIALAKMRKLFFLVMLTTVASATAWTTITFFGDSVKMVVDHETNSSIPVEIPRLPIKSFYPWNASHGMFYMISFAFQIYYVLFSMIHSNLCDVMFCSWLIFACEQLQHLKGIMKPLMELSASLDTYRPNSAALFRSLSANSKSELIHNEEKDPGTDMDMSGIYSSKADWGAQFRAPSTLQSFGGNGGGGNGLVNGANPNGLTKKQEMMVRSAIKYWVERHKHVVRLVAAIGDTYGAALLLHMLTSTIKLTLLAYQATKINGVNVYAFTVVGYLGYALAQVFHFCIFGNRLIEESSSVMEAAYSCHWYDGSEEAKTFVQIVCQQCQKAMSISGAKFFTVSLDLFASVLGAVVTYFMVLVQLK

SMILES: CCC/C=C/C=O [E2-hexenal]
- limit of detection ([1]; nanodiscs 1:100 dilution): below 1 fM
- concentration at which clear electronic response starts ([1]; real time current measurement mode): 1 fM

SMILES: CCCCCC(=O)OC [methyl hexanoate]
- Sensitivity limit (Log) ([2]; ref 23): Log = −7.5*
- EC50 ([2]; ref 24): 1170 nM
- Sensitivity limit (Log) ([2]; ref 24): Log = −7*
